SMILES strings stand for the structures. Calls of active or inactive are those of the source. The calls are words filed in the database; no cut-off is given here.

A short description of assay [1]: Downregulation of NSD3 level in human NCI-H520 cells at 3 uM by measuring fold change by Western blot analysis relative to control. The class given is functional. A general note: In western blotting, separated proteins are transferred to a membrane and probed.
The subject of assay [2] is NCI-H1703. Kind of assay: Downregulation of CyclinD1 level in human NCI-H1703 cells at 3 to […] by Western blot analysis. The class given is functional, cell-based. As to conditions: dose 3-7.5 µM.
The test system of assay [3] is NCI-H1703. Kind of assay: Induction of apoptosis in human NCI-H1703 cells assessed as early apoptotic cells at […] measured after 72 hrs by PI/Annexin-V staining based flow cytometry analysis (reference value: 1.47% ). The class given is functional. The settings on record: dose 7.5 µM. (A flow cytometer gives signals particle by particle.)
For assay [4], the target named is T1, Histone-lysine N-methyltransferase NSD3 (Homo sapiens) (UniProt Q9BZ95).
T1 sequence (whole entry): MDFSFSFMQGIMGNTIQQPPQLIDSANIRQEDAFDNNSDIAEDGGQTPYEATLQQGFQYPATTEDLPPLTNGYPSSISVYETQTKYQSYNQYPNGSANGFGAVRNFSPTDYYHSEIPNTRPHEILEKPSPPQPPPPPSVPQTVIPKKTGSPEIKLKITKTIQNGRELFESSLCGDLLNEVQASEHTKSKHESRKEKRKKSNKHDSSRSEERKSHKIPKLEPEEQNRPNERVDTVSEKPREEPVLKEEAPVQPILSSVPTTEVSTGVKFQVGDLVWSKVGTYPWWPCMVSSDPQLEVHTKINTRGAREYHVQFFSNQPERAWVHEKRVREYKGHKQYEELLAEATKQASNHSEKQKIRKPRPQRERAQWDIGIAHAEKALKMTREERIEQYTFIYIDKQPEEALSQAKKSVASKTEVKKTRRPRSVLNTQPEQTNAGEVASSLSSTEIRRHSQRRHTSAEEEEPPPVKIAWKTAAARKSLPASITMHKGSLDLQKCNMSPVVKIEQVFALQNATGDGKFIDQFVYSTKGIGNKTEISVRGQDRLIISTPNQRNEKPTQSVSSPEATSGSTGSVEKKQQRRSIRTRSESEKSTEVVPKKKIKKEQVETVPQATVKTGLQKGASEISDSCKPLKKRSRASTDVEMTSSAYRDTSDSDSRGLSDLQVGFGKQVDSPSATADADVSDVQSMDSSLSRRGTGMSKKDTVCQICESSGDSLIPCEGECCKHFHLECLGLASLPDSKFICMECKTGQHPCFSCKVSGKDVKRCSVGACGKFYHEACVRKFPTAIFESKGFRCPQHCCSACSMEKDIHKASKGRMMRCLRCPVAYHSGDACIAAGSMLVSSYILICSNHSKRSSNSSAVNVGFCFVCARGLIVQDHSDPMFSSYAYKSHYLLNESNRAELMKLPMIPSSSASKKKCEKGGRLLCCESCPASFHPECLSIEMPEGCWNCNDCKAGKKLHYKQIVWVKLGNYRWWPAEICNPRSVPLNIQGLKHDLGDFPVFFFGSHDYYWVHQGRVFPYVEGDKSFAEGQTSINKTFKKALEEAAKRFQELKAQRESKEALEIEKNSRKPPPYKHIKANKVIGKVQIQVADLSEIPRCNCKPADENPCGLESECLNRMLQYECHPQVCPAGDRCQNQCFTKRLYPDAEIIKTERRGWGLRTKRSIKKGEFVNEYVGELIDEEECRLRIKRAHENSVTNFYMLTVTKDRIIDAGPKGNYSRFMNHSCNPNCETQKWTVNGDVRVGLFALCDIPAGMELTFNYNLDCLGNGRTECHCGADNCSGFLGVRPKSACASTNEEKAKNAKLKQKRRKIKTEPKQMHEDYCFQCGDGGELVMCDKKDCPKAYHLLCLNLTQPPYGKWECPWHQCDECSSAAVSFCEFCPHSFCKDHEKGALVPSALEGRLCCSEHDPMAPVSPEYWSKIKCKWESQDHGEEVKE
Nature of the assay: Induction of NSD3 degradation in human NCI-H1703 cells measured upto 72 hrs by Western blot analysis. As to conditions: dose 0.001-10 µM. The class given is cell-based.

Assay [5] has as its system NCI-H1703. Kind of assay: Induction of apoptosis in human NCI-H1703 cells assessed as decrease in MCL-1 protein expression at 10 uM by measuring fold change by Western blot analysis relative to control. It counts as functional.
For assay [6], the target named is T1, Histone-lysine N-methyltransferase NSD3 (Homo sapiens). Nature of the assay: Induction of NSD3 degradation in human NCI-H1703 cells at 0.001 to 10 uM by Western blot analysis. The class given is cell-based. The settings on record: dose 0.001-10 µM, time <= 72.0 hrs, TDE = time-dependent effect.
The target is the same in assay [7]. Nature of the assay: Induction of NSD3 degradation in human A549 cells assessed as reduction in H3K36me3 methylation incubated for 72 hrs by Western blot analysis. It counts as cell-based. The settings on record: dose 5-10 µM.
The subject of assay [8] is NCI-H1703. Kind of assay: Induction of apoptosis in human NCI-H1703 cells assessed as decrease in Bcl-XL protein expression at 5 to 10 uM by Western blot analysis. The settings on record: dose 5-10 µM. The class given is functional, cell-based.
Assay [9] concerns the target T1, Histone-lysine N-methyltransferase NSD3 (Homo sapiens). Nature of the assay: Induction of NSD3 degradation in human NCI-H1703 cells at 5 uM measured within 12 hrs by Western blot analysis. The class given is cell-based.
In assay [10] the test system is NCI-H520. Nature of the assay: Induction of apoptosis in human NCI-H520 cells assessed as decrease in MCL-1 protein expression at 5 to 10 uM by Western blot analysis. The class given is functional, cell-based. The settings on record: dose 5-10 µM.
For assay [11], the system named is NCI-H1703. Nature of the assay: Induction of apoptosis in human NCI-H1703 cells assessed as decrease in NSD3 protein expression at […] by measuring fold change by Western blot analysis relative to control. It counts as functional. The settings on record: dose 7.5 µM.
Assay [12] in a line: Downregulation of Cyclin D1 level in human NCI-H1703 cells at 3 uM by measuring fold change by Western blot analysis relative to control. The class given is functional.
Assay [13] deals with T1, Histone-lysine N-methyltransferase NSD3 (Homo sapiens). Kind of assay: Induction of NSD3 degradation in human NCI-H1703 cells assessed as reduction in H3K36me3 methylation incubated for 72 hrs by Western blot analysis. It counts as cell-based. The settings on record: dose 3-7.5 µM.
Assay [14] can be described thus: Downregulation of NSD3 level in human NCI-H1703 cells at 3 uM by measuring fold change by Western blot analysis relative to control. The class given is functional.
Assay [15] in a line: Downregulation of CDC25A level in human NCI-H1703 cells at […] by measuring fold change by Western blot analysis relative to control. The class given is functional. The settings on record: dose 7.5 µM.
Assay [16] concerns NCI-H1703. Nature of the assay: Induction of apoptosis in human NCI-H1703 cells assessed as viable cells at 3 uM measured after 72 hrs by PI/Annexin-V staining based flow cytometry analysis (reference value: 92.7% ). The class given is functional. As to conditions: read-out: Activity.
In assay [17] the test system is NCI-H1703. Nature of the assay: Induction of apoptosis in human NCI-H1703 cells assessed as late apoptotic cells at […] measured after 72 hrs by PI/Annexin-V staining based flow cytometry analysis (reference value: 3.00% ). It counts as functional. As to conditions: dose 7.5 µM.
Assay [18] in a line: Downregulation of c-Myc level in human NCI-H520 cells at 5 uM by measuring fold change by Western blot analysis relative to control. The class given is functional.
The test system of assay [19] is NCI-H520. Nature of the assay: Downregulation of CDC25A level in human NCI-H520 cells at 3 to […] by Western blot analysis. As to conditions: dose 3-7.5 µM. The class given is functional, cell-based.
Assay [20] has as its system NCI-H1703. Kind of assay: Downregulation of c-Myc level in human NCI-H1703 cells at 3 to […] by Western blot analysis. The class given is functional, cell-based. As to conditions: dose 3-7.5 µM.
In assay [21] the test system is NCI-H1703. Nature of the assay: Induction of apoptosis in human NCI-H1703 cells assessed as necrotic cells at 10 uM measured after 72 hrs by PI/Annexin-V staining based flow cytometry analysis (reference value: 2.80% ). The class given is functional.

Regarding `Cc1cc(CNCCCCCCCCCCC(=O)N[C@H](C(=O)N2C[C@H](O)C[C@H]2C(=O)N[C@@H](C)c2ccc(-c3scnc3C)cc2)C(C)(C)C)cc(C)c1-c1ncn(C)c1-c1ccnc2cc(F)ccc12`, the “fold change (FC)” value in [1] came to 0.67; in the assay on NCI-H1703 [5], 0.53; in the assay with NCI-H1703 [11] it was 0.73; in assay [12] it was 0.84; in assay [14], 0.97; in [15], 0.77. Besides, the “fold change (FC)” value in assay [18] is 0.97. The result (with NCI-H1703 [2]; in the assay with NCI-H1703 [8]; in [9]; in the assay on NCI-H520 [10]; in the assay on NCI-H520 [19]; with NCI-H1703 [20]) was Active. For the same compound, the Activity in the assay on NCI-H1703 [3] was 3.68%; in assay [4], “Dose-Dependent Effect”; in assay [6], “Tde”; in assay [7] it was “Dose-Dependent Effect”; in [13], “Dose-Dependent Effect”; with NCI-H1703 [17] it was 26.6%. In the assay on NCI-H1703 [21], the Activity was determined as 16.6%. In addition, the viability at 3 µM in the assay on NCI-H1703 [16] stood at 94.2%.

The record behind these values is ChEMBL document CHEMBL5338706, “Discovery of a potent and selective proteolysis targeting chimera (PROTAC) degrader of NSD3 histone methyltransferase” (Eur J Med Chem, 2022).
